In assay [1] the target is T1, Human V1b receptor (Homo sapiens, UniProt P47901).
T1 sequence (P47901 1-424): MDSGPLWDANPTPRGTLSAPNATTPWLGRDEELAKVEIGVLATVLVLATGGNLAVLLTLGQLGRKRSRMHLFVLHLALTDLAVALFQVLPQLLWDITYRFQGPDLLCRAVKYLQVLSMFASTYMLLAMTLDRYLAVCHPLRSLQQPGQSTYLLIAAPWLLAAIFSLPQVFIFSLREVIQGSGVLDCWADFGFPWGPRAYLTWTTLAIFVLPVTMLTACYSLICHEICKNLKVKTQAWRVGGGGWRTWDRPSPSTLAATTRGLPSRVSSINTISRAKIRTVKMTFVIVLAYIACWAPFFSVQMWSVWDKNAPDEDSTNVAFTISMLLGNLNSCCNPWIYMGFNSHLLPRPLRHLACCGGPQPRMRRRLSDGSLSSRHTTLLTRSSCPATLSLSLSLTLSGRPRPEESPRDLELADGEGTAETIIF
The assay can be described thus: Binding test for V1b receptor ([3H]AVP displacement, crude membrane preparation). Details: expressed in transfected cells; host or cells: 293FT cells (transient expression). The settings on record: [3H]AVP 0.4 to 1 nmol/L; membranes of 293FT cells transiently expressing human V1b receptor; room temperature, 60 minutes. On the procedure: Human V1b receptor was transiently expressed in 293FT cells, which were then recovered and homogenated in a 15 mmol/L tris-hydrochloric acid buffer (pH 7.4 and containing 2 mmol/L magnesium chloride, 0.3 mmol/L ethylenediaminetetracetic acid, and 1 mmol/L glycol ether diaminetetraacetic acid). The resulting homogenate was centrifuged at 50,000×g at 4 ° C. for 20 minutes. The precipitate was resuspended in a 75 mmol/L tris-hydrochloric acid buffer (pH 7.4 and containing 12.5 mmol/L magnesium chloride, 0.3 mmol/L ethylenediaminetetracetic acid, 1 mmol/L glycol ether diaminetetraacetic acid, and 250 mmol/L sucrose) to give a crude membrane preparation, which was stored at −80° C. until the binding test was initiated. In the binding test, the crude membrane preparation was diluted with a 50 mmol/L tris-hydrochloric acid buffer (pH 7.4 and containing 10 mmol/L magnesium chloride and 0.1% bovine serum albumin) and mixed with each test compound and [^3H]AVP (final concentration: 0.4 to 1 nmol/L), followed by incubation at room temperature for 60 minutes. The test compound was serially diluted with DMSO so that it would have final concentrations of 0.01 nmol/L to […] at the time of mixing. After the incubation, the mixture was suction filtered through a GF/C filter that was preliminarily impregnated with 0.3% polyethyleneimine. The GF/C filter was dried and after adding a scintillator, the residual radioactivity on the filter was measured using TopCount (PerkinElmer Inc.). The radioactivity in the presence of unlabeled AVP at 10 μmol/L was defined as 0%, and the radioactivity in the absence of unlabeled AVP was defined as 100%. A dose-response curve was plotted from radioactivities in the presence of a test compound at various concentrations, and the 50% inhibitory concentration (IC50 value) of the test compound was calculated.

The target in assay [2] is T1, Human V1b receptor. The assay can be described thus: Measurement of V1b receptor antagonistic activity (AVP-induced Fluo-4 fluorescence, FDSS). The assay is classed as cell-based. Details: expressed in transfected cells. To be noted: CHO cells stably expressing human V1b receptor; AVP 2.5 nmol/L; 30 minutes preincubation with test compound. The procedure:
CHO cells so modified as to express human V1b receptor in a stable manner were cultured in Ham's F-12 medium (containing 10% FBS and 0.5 mg/mL Geneticin). On the day before the test, seeding was conducted at a density of 20,000 cells/well in a 96-well poly-D-lysine coated black plate. On the day of the test, the culture medium was removed, and a loading solution (1×HBSS, 10 mmol/L HEPES, 0.1% bovine serum albumin, 1.25 mmol/L Probenecid, 0.02% Pluronic F-127, 1.5 μmol/L Fluo-4-AM, pH 7.4) was added to each well, followed by incubation in a CO2 incubator for an hour. After the incubation, the loading solution was removed. A test solution (1×HBSS, 10 mmol/L HEPES, 0.1% bovine serum albumin, 1.25 mmol/L Probenecid, pH 7.4) containing any one of test compounds was added to wells, followed by incubation in a CO2 incubator for 30 minutes. The test compound was serially diluted with DMSO so that it would have final concentrations of 0.1 nmol/L to 1 μmol/L at the time of assaying. After the incubation, fluorescence intensity levels were measured and AVP added by means of FDSS (Hamamatsu Photonics K.K.); AVP was added to give a final concentration of 2.5 nmol/L at the time of assaying. […] The fluorescence level in a well to which neither test compound nor AVP was added was defined as 0%, and the fluorescence level in a well to which only AVP was added and no test compound was added was defined as 100%. A dose-response curve was plotted from fluorescence levels after the addition of AVP in the presence of a test compound at various concentrations, and the 50% inhibitory concentration (IC50 value) of the compound was calculated.

IC50 data for 22 compounds are collected here from US20150045551A1, “FUSED AZOLE DERIVATIVE” (TAISHO PHARMACEUTICAL CO., LTD, priority 2012, published 2015).

pIC50: −log10 of the molar value.

As to `CC(C)NC(=O)Cn1c(-c2cccc(Cl)c2)nc2cc(OCCCN3CCCCC3)ccc21` [Example A-1, 2-{2-(3-chlorophenyl)-5-[3-(piperidin-1-yl)propoxy]-1H-benzimidazol-1-yl}-N-isopropyl acetamide], the pIC50 is 7.84 on Human V1b receptor [1] and 6.67 against Human V1b receptor [2].

In the case of `COc1cc(-c2nc3cc(OCCCN4CCCCC4)ccc3n2CC(=O)NC(C)C)ccc1F` [Example A-5, 2-{2-(4-fluoro-3-methoxyphenyl)-5-[3-(piperidin-1-yl)propoxy]-1H-benzimidazol-1-yl}-N-isopropyl acetamide], the negative logarithm of the IC50 (pIC50) on Human V1b receptor [1] was 7.36; at Human V1b receptor [2] it was 6.91. In the case of `COc1cc(-c2nc3cc(OCCCN4CCOCC4)ccc3n2CC(=O)NC(C)C)ccc1F` [Example A-6, 2-{2-(4-fluoro-3-methoxyphenyl)-5-[3-(morpholin-4-yl)propoxy]-1H-benzimidazol-1-yl}-N-isopropyl acetamide], the values for the pIC50 at Human V1b receptor [1] and at Human V1b receptor [2] were 7.53 and 7.59, respectively.

Regarding `COc1cc(-c2nc3cc(-c4cc(Cl)cc(CN(C)C)c4)ccc3n2CC(=O)NC(C)C)ccc1F` [Example A-9, 2-[5-{3-chloro-5-[(dimethylamino)methyl]phenyl}-2-(4-fluoro-3-methoxyphenyl)-1H-benzimidazol-1-yl]-N-isopropyl acetamide], the pIC50 at Human V1b receptor [1] is 8.59; on Human V1b receptor [2], 7.00. In turn, `CC(C)NC(=O)Cn1c(-c2ccc(F)c(Cl)c2)nc2cc(OCCCN3CCCCC3)ccc21` [Example A-11, 2-{2-(3-chloro-4-fluorophenyl)-5-[3-(piperidin-1-yl)propoxy]-1H-benzimidazol-1-yl}-N-isopropyl acetamide] showed a pIC50 against Human V1b receptor [2] of 7.06. For the compound `CC(C)NC(=O)Cn1c(-c2ccc(F)c(Cl)c2)nc2cc(OCCCN3CCCCCC3)ccc21` [Example A-13, 2-{5-[3-(azepan-1-yl)propoxy]-2-(3-chloro-4-fluorophenyl)-1H-benzimidazol-1-yl}-N-isopropyl acetamide], the negative logarithm of the IC50 (pIC50) on Human V1b receptor [1] was 7.48; against Human V1b receptor [2] it was 7.20. Turning to `CC(C)NC(=O)Cn1c(-c2ccc(F)c(Cl)c2)nc2cc(OCCCN3CCOCC3)ccc21` [Example A-14, 2-{2-(3-chloro-4-fluorophenyl)-5-[3-(morpholin-4-yl)propoxy]-1H-benzimidazol-1-yl}-N-isopropyl acetamide], the negative-log IC50 (pIC50) on Human V1b receptor [1] was 7.90; against Human V1b receptor [2] it was 7.27. With `CC(C)NC(=O)Cn1c(-c2cccc(Cl)c2)cc2cc(OCCCN3CCCCC3)ccc21` [Example B-1, 2-{2-(3-chlorophenyl)-5-[3-(piperidin-1-yl)propoxy]-1H-indol-1-yl}-N-isopropyl acetamide], the negative logarithm of the IC50 (pIC50) at Human V1b receptor [1] was 8.06; against Human V1b receptor [2], 7.01. Turning to `CC(C)NC(=O)Cn1c(-c2ccc(F)c(Cl)c2)cc2cc(OCCCN3CCCCC3)ccc21` [Example B-4, 2-{2-(3-chloro-4-fluorophenyl)-5-[3-(piperidin-1-yl)propoxy]-1H-indol-1-yl}-N-isopropyl acetamide], the negative-log IC50 (pIC50) on Human V1b receptor [1] is 8.31; against Human V1b receptor [2] it was 7.66. Take `CC(C)NC(=O)Cn1c(-c2ccc(F)c(Cl)c2)cc2cc(OCCCN3CCOCC3)ccc21` [Example B-5, 2-{2-(3-chloro-4-fluorophenyl)-5-[3-(morpholin-4-yl)propoxy]-1H-indol-1-yl}-N-isopropyl acetamide]: the pIC50 on Human V1b receptor [1] is 8.05; against Human V1b receptor [2], 8.10. Take `CC(C)NC(=O)Cn1c(-c2cccc(Cl)c2)cc2cc(OCCCN3CC4(COC4)C3)ccc21` [Example B-9, 2-{2-(3-chlorophenyl)-5-[3-(2-oxa-6-azaspiro[3.3]hept-6-yl)propoxy]-1H-indol-1-yl}-N-isopropyl acetamide]: the results for the negative-log IC50 (pIC50) on Human V1b receptor [1] and at Human V1b receptor [2] were 8.28 and 7.67, respectively. `COc1cc(-c2cc3cc(OCCCN4CC5(COC5)C4)ccc3n2CC(=O)NC(C)C)ccc1F` [Example B-15, 2-{2-(4-fluoro-3-methoxyphenyl)-5-[3-(2-oxa-6-azaspiro[3.3]hept-6-yl)propoxy]-1H-indol-1-yl}-N-isopropyl acetamide] had a negative logarithm of the IC50 (pIC50) at Human V1b receptor [1] of 8.08.

Turning to `COc1cc(-c2cc3cc(OCCCN4CCC[C@H]4C)ccc3n2CC(=O)NC(C)C)ccc1F` [Example B-16, 2-[2-(4-fluoro-3-methoxyphenyl)-5-{3-[(2R)-2-methylpyrrolidin-1-yl]propoxy}-1H-indol-1-yl]-N-isopropyl acetamide], the negative logarithm of the IC50 (pIC50) on Human V1b receptor [1] is 6.78. Take `CC(C)NC(=O)Cn1c(-c2cccc(Cl)c2)cc2cc(CCCCN3CCCCC3)ccc21` [Example B-18, 2-{2-(3-chlorophenyl)-5-[4-(piperidin-1-yl)butyl]-1H-indol-1-yl}-N-isopropyl acetamide]: the negative logarithm of the IC50 (pIC50) on Human V1b receptor [1] was 7.70. This pIC50 is 0.92 log units higher than that of the compound before.

Take `COc1cncc(-c2cc3cc(OCCCN4CCCCC4)ccc3n2CC(=O)NC(C)C)c1` [Example B-19, N-isopropyl-2-{2-(5-methoxypyridin-3-yl)-5-[3-(piperidin-1-yl)propoxy]-1H-indol-1-yl}acetamide]: the negative-log IC50 (pIC50) at Human V1b receptor [1] is 6.41.

For `COc1cccc(-c2cc3cc(OCCCN4CCCCC4)ccc3n2CC(=O)NC(C)C)c1` [Example B-20, N-isopropyl-2-{2-(3-methoxyphenyl)-5-[3-(piperidin-1-yl)propoxy]-1H-indol-1-yl}acetamide], the pIC50 on Human V1b receptor [1] is 6.89. On Human V1b receptor [1], `CC(C)NC(=O)Cn1c(-c2cccc(Cl)c2)cc2nc(OCCCN3CCCCC3)ccc21` [Example B-22, 2-{2-(3-chlorophenyl)-5-[3-(piperidin-1-yl)propoxy]-1H-pyrrolo[3,2-b]pyridin-1-yl}-N-isopropyl acetamide] gave a negative-log IC50 (pIC50) of 7.33.

`CC(C)NC(=O)Cc1c(-c2ccc(F)c(Cl)c2)nc2cc(OCCCN3CCCCC3)ccn12` [Example C-1, 2-{2-(3-chloro-4-fluorophenyl)-7-[3-(piperidin-1-yl)propoxy]imidazo[1,2-a]pyridin-3-yl}-N-isopropyl acetamide] had a pIC50 at Human V1b receptor [1] of 7.97. `CC(C)NC(=O)Cc1c(-c2ccc(F)c(Cl)c2)nc2cc(OCCCN3CCOCC3)ccn12` [Example C-2, 2-{2-(3-chloro-4-fluorophenyl)-7-[3-(morpholin-4-yl)propoxy]imidazo[1,2-a]pyridin-3-yl}-N-isopropyl acetamide] showed a pIC50 on Human V1b receptor [1] of 8.00. With `CC(C)NC(=O)Cn1c(=O)c2cc(OCCCN3CCCCC3)ccc2n1-c1cccc(Cl)c1` [Example D-1, 2-{1-(3-chlorophenyl)-3-oxo-5-[3-(piperidin-1-yl)propoxy]-1,3-dihydro-2H-indazol-2-yl}-N-isopropyl acetamide], the pIC50 on Human V1b receptor [1] was 6.43.

`CC(C)NC(=O)Cn1c(-c2cccc(Cl)c2)cc2c1CCN(CCCCN1CCCCC1)C2` [Example E-1, 2-{2-(3-chlorophenyl)-5-[4-(piperidin-1-yl)butyl]-4,5,6,7-tetrahydro-1H-pyrrolo[3,2-c]pyridin-1-yl}-N-isopropyl acetamide] had a pIC50 on Human V1b receptor [1] of 6.28.

`CC(C)NC(=O)Cc1nc2cc(OCCCN3CCCCC3)ccn2c1-c1cccc(Cl)c1` [Example F-1, 2-{3-(3-chlorophenyl)-7-[3-(piperidin-1-yl)propoxy]imidazo[1,2-a]pyridin-2-yl}-N-isopropyl acetamide] gave a negative-log IC50 (pIC50) at Human V1b receptor [1] of 7.09.
